The text below walks through data of paper PMC12350126, “A novel carboxamide bromodomain inhibitor attenuates osteoarthritis via epigenetic repression of NF-κB and MAPK signaling” (Frontiers in Immunology, 2025).

The test system of assay [1] is NF-κB and MAPK signaling in mouse articular chondrocytes. Description: IL-1β-induced NF-κB and MAPK signaling in chondrocytes (western blotting, densitometry). The format is cell-based. The note with it: NCD 10, 50, 100 μM pretreatment 12 h, IL-1β 1 ng/mL 10 min. As to the method:
The total protein was extracted from the primary cultured chondrocytes using a lysis buffer, containing 150 mM NaCl, 1% NP-40, 50 mM Tris/HCl (pH 8.0), 0.2% sodium dodecyl sulfate, and 5 mM NaF, supplemented with protease and phosphatase inhibitor mixture (Roche, Madison, WI, USA). Proteins were separated using sodium dodecyl sulfate-polyacrylamide gel electrophoresis, and western blot analysis was performed using the following antibodies: goat anti‐Cox2 (sc‐1745; Santa Cruz Biotechnology, Dallas, TX, USA), mouse anti-Erk1/2 (610408; Becton Dickinson, NJ, USA), mouse anti-IκB [9242; Cell Signaling Technology (CST), MA, USA], mouse anti-p65 (8242; CST), mouse anti-phospho-p65 (3033; CST), mouse anti-p38 (#9212; CST), mouse anti-pp38 (#9215S; CST), mouse anti-c-Jun N-terminal kinase (Jnk) (#9252S; CST), mouse anti-pJnk (#9251S; CST), and mouse anti-pErk (#9101S; CST). Each signal was visualized using a SuperSignal West Dura Kit (Thermo Fisher Scientific, Waltham, MA, USA). Density analysis (AlphaEase FC 4.0; Alpha Innotech, CA, USA) was performed to calculate the relevant band intensities. Extracellular signal-regulated kinase (Erk) was used as the loading control ([28]).
Figure 6 NCD regulates NF-κB and MAPK signaling pathways induced by IL-1β in mouse chondrocytes. Articular chondrocytes were pretreated with NCD at different concentrations (0,10, 50, or 100 μM) for 12 h (n = 3) before being stimulated with IL-1β (1 ng/mL) for 10 min. Levels of phosphorylated Jnk (pJnk), phosphorylated Erk (pErk), and phosphorylated p38 (pp38) proteins were determined using western blotting. (A, B) Protein levels of IκB were detected using western blotting (A) and densitometry (B). JQ-1 (200 μM) was used as a positive control. All data were analyzed using one‐way analysis of variance with Bonferroni’s test and expressed as mean ± standard error of mean (SEM) (n = 3); *P < 0.05, **P < 0.01, ***P < 0.001, and ****P < 0.0001 compared to the control group.
(In general: In western blotting, separated proteins are transferred to a membrane and probed.)

Assay [2] deals with T1, BRD4 (BD1 + BD2) (Homo sapiens, UniProt O60885).
T1 construct: BRD4 (BD1 + BD2); purchased BPS Bioscience
Put plainly: TR-FRET assay, BRD4 (BD1 + BD2). The following applies: lower signal = stronger binding. As to the method: TR-FRET assays were conducted using kits specific for BRD2 (BD1 + BD2), BRD3 (BD1 + BD2), and BRD4 (BD1 + BD2) obtained from BPS Bioscience (San Diego, CA, USA). Bromodomain ligands were diluted in water, and master mixes were prepared by combining the diluted ligands with 1× BRD Homogeneous Assay Buffer. Thawed BRD proteins were also diluted with the same buffer. For each assay, 1.5 μL of the master mix was dispensed into wells of a microplate (Labcyte, San Jose, CA, USA), followed by the addition of 5 μL of diluted BRD protein to initiate the reaction. Plates were incubated at 20–22°C for 30–60 min. Subsequently, glutathione (GSH) acceptor beads and streptavidin-conjugated donor beads (both from PerkinElmer, Waltham, MA, USA) were diluted in 1× BRD Homogeneous Detection Buffer 1. Next, 10 μL of the acceptor bead solution was added to each well and incubated at 18°C for 30 min, followed by the addition of 10 μL of donor bead solution and a further incubation at 18°C for 15–30 min. Alpha particle counts were measured using an EnVision 2105 multimode plate reader (PerkinElmer).

The test system of assay [3] is DMM-induced OA in C57BL/6J mice. Description: DMM-induced OA mouse model, intra-articular injection. The format is in vivo. As to the method: All experiments were independently performed with at least three biological replicates to ensure reproducibility. For in vivo studies, animals were randomly assigned to treatment or control groups. To create a DMM-induced OA model, DMM surgery was performed on 12-week-old male C57BL/6J mice, following a previously reported protocol ([26]). Subsequently, NCD was either orally administered or injected in mice; the NCD (50 mg/kg) was orally administered on alternate days 4 weeks after DMM, whereas IA knee injection of NCD (10 μg) was administered once a week after 4 weeks. The mouse knee joint was processed for histological analysis 10 weeks after surgery. All experiments were independently performed with at least three biological replicates to ensure reproducibility. For in vivo studies, animals were randomly assigned to treatment or control groups. For in vitro experiments, cells were plated using a randomized layout across multi-well plates to avoid positional effects and ensure unbiased treatment assignment
All histological samples were prepared independently by two researchers. Cartilage destruction was evaluated based on Safranin O staining and scored using the OA Research Association International (OARSI) grading system ([29]). Additionally, all histological samples were analyzed through osteophyte maturity scoring and subchondral bone plate (SBP) thickness. Osteophyte maturity was scored as described previously ([30]). Briefly, the scoring was as follows: 0 = none, 1 = predominantly cartilaginous, 2 = mixed cartilage and bone with active vascular invasion and endochondral ossification, 3 = predominantly bone. SBP thickness was measured to analyze subchondral bone sclerosis. All experiments were independently performed over at least three replicates. […] For each sample, measurements were performed on serial sections, and the mean value was calculated for analysis. The samples were […] by treating with 0.5 M ethylenediamine tetraacetic acid (pH 8.0) for 2 weeks. Next, mouse knee joint samples were fixed using 4% paraformaldehyde and embedded in paraffin. The paraffin-embedded samples were cut into 5-μm sections and fixed on glass slides. The tissue sections were then hydrated using a graded ethanol series, which removed paraffin and xylene. Mouse knee joint sections were immunohistochemically analyzed using anti-Mmp3 (ab52915, Abcam, Cambridge, UK), anti-Mmp13 (ab51072, Abcam), and anti-Cox2 (66351-I-Ig, ProteinTech, Rosemont, ILllinois, USA).

The mark [4] stands for this setting: IA injection 10 μg once a week from 4 weeks after DMM, 10 weeks after surgery, vs PBS.

Consider `CNC(=O)CC1C(=O)NCCN1Cc1ccc(-c2ccccc2-c2cccc3c2CN(C)C3=O)o1` (stereo not drawn) [NCD, N-methyl-2-(1-((5-(2-(2-methyl-1-oxoisoindolin-4-yl)phenyl)furan-2-yl)methyl)-3-oxopiperazin-2-yl)acetamide], for which, in assay [1], the “Degradation of IκB” value is listed as “effectively prevented”, the “Phosphorylation level of ERK” value is on record as “markedly reduced”, the “Phosphorylation level of JNK” value was “markedly reduced” and the “Phosphorylation of the p65 subunit” value was “significantly suppressed”. The p38 phosphorylation entry in assay [1] is given as “remained largely unaffected”. Besides, the TR-FRET value in assay [2] is greater than 100000 RLU. Also, in assay [3] (setting [4]), the OARSI grade entry is reported as “significant reduction”, the Osteophyte maturity result is given as “significant reduction” and the SBP thickness entry was “significant reduction”. In assay [3] (IA injection 10 μg, DMM mice), the “Expression of Mmp3, Mmp13 and Cox2 in knees (immunohistochemistry)” value is recorded as “lower expression levels”; the NITEGE expression result is listed as “reduced”; the “Type II collagen levels (immunohistochemistry)” value is listed as “partially preserved”.
